From ChEMBL document CHEMBL1201862, “PubChem BioAssay data set” (2004)
Calls of active or inactive are those of the source.

How the values were obtained:
[1] = cells; format: functional
[2] = molecular target: Cytochrome P450 3A4 (Homo sapiens, UniProt P08684);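 further: CYP3A4 tested as one member of a cytochrome P450 panel screen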
[3] = molecular target: Luciferin 4-monooxygenase (Photinus pyralis, UniProt P08659); assay: inhibition of purified Photinus pyralis luciferase – biochemical, luminescence, dose response (AID 1891)
[4] = Luminescence Cell-Based Dose Confirmation HTS to Identify Inhibitors of Platelet Dense Granule Release. [Related pubchem assays: 1663 (Primary HTS), 1678 (Summary of Project)]; format: functional
[5] = molecular target: Cytochrome P450 2D6 (Homo sapiens, UniProt P10635);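 further: CYP2D6 member of a cytochrome P450 panel assay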
[6] = molecular target: T1, Cytochrome P450 1A2 (Homo sapiens, UniProt P05177);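 further: PubChem cytochrome P450 panel assay, CYP1A2 panel member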
T1 sequence (P05177 whole entry): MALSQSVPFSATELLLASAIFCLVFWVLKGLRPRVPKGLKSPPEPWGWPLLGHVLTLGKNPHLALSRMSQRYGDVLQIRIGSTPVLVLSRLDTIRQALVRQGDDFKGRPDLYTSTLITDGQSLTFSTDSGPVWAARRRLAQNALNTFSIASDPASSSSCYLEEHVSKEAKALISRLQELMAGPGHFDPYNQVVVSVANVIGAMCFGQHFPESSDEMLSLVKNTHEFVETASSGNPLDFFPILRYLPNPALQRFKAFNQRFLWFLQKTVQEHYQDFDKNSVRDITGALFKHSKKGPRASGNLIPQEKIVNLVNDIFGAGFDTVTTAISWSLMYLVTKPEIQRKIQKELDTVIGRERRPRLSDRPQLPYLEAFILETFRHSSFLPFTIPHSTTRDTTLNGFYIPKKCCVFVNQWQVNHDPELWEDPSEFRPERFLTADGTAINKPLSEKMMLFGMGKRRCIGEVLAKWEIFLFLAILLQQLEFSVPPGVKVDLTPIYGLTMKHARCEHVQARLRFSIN

[7] = molecular target: Cytochrome P450 2C9 (Homo sapiens, UniProt P11712)
[8] = molecular target: T2, Corticotropin-releasing factor receptor 2/Corticotropin-releasing factor-binding protein (Homo sapiens, UniProt P24387+Q13324); assay: activators of CRF receptor 2 with binding protein – uHTS hits, confirmation (AID 602473); format: functional; details: read-out: EC50_Mean
T2 sequence (Q13324 whole entry): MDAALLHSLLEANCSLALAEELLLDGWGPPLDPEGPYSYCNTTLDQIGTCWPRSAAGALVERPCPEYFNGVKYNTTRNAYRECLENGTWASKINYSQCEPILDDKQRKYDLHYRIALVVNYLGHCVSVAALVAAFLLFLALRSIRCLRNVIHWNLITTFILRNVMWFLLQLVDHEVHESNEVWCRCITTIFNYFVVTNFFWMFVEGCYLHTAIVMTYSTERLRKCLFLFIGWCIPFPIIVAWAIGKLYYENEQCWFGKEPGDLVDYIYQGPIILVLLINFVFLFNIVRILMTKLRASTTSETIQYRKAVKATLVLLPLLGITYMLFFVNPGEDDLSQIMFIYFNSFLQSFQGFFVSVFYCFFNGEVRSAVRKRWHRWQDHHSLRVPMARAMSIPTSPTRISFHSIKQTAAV
T2 sequence (P24387 whole entry): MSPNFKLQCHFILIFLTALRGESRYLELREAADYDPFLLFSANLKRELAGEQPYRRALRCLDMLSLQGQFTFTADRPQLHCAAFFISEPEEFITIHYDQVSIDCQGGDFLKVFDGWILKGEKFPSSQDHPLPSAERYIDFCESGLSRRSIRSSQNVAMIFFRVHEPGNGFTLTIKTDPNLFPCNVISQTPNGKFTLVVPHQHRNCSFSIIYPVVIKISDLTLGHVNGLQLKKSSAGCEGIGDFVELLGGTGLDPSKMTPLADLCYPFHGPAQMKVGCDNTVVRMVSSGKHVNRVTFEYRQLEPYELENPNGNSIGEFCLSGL

[9] = fluconazole-exposed Candida albicans growth modulators – fluorescence, retest, confirmation (AID 2467); format: functional, cell-based
[10] = NIH-3T3 fibroblast cytotoxicity, dose response, cytotoxicity control, cell-based, fluorescence, Alamar Blue, secondary assay (AID 2327); format: functional;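 further: NIH-3T3 mouse fibroblasts cultured with fluconazole at 8 µg/mL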

Sequence of Cytochrome P450 3A4 (P08684 whole entry): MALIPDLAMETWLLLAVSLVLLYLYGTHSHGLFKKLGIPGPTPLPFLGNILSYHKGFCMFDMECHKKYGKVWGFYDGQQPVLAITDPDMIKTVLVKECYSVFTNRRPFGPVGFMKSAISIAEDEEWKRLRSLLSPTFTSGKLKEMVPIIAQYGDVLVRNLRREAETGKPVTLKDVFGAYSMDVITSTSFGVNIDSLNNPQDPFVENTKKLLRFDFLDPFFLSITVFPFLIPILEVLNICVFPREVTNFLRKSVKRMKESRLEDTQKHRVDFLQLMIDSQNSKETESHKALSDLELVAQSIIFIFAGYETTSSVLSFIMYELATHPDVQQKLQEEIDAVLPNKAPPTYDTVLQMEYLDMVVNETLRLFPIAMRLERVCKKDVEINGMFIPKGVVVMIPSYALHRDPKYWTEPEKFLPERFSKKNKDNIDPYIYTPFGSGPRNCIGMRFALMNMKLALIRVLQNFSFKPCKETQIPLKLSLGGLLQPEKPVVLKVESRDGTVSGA
Sequence of Cytochrome P450 2C9 (P11712 whole entry): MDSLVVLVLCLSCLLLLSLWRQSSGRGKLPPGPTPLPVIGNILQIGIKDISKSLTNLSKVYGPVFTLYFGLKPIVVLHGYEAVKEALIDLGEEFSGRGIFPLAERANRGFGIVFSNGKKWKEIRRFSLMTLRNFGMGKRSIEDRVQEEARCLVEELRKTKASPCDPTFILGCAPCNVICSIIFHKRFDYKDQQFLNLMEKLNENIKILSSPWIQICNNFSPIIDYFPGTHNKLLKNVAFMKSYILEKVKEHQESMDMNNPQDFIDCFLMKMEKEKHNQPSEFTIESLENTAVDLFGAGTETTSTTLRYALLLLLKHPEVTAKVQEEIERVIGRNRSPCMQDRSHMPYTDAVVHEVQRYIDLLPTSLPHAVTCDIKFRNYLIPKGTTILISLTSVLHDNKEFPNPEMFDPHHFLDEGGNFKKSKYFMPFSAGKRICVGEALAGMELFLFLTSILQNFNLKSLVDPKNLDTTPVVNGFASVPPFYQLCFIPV
Sequence of Luciferin 4-monooxygenase (P08659 whole entry): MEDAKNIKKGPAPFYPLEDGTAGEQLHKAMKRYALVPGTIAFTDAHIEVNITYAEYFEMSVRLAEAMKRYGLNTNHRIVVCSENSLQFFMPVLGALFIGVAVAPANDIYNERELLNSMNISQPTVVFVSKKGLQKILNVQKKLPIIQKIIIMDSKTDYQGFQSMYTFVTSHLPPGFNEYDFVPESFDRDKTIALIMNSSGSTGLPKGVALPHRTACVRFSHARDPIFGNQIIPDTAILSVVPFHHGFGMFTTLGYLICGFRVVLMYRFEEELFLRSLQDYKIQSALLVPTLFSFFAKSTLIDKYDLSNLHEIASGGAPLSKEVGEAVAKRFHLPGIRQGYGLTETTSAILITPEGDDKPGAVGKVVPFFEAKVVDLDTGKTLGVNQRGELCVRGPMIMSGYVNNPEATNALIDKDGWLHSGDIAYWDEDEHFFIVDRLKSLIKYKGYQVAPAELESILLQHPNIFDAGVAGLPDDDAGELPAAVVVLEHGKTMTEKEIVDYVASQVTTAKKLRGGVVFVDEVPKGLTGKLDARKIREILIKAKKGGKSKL
Sequence of Cytochrome P450 2D6 (P10635 whole entry): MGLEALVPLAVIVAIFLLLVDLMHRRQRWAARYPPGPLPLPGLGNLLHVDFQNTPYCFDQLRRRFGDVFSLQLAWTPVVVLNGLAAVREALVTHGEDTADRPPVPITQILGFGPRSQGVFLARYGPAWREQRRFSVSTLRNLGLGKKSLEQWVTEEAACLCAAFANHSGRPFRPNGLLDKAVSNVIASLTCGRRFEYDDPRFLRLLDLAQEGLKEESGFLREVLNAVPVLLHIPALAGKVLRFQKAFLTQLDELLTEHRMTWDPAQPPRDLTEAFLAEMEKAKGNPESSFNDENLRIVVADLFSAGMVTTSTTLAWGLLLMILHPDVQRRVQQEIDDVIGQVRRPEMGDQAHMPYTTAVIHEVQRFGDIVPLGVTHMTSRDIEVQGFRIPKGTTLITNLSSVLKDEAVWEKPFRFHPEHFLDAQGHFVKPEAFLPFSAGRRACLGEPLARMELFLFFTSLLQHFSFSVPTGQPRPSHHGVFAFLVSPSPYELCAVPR

Cc1cccc(Cc2cnc(NC(=O)C3=NCCN3)s2)c1
IC50 [1]: 4.6 µM (active)

O=C(Nc1ccccc1)N1CC[C@@]2(CCCN(C(=O)c3cccc(F)c3)C2)C1
AC50 [2]: 25.1 µM (inconclusive)

COc1ccc(Oc2nc(C)cc(C)c2S(=O)(=O)c2ccc(C)cc2)cc1
AC50 [2]: 1.12 µM (inconclusive)

COc1ccc2cc(C(=O)C3CCCN(Cc4ccccn4)C3)ccc2c1 (stereo not given)
IC50 [1]: 5.03 µM (active)

COc1ccc(CC(=O)Nc2ccc(-c3cn4ccccc4n3)cc2)cc1OC
EC50 [3]: > 112 µM (not active) | EC50 [4]: > 112 µM (not active)

COc1ccc(-c2nnc(-c3ccccc3)o2)cc1OC
EC50 [3]: > 112 µM (not active) | EC50 [4]: 72.5 µM (active)

COc1ccc(C(=O)N2CCC3(CCCN(c4ncccn4)C3)CC2)cc1
AC50 [2]: 39.8 µM (inconclusive) | AC50 [5]: 31.6 µM (inconclusive) | AC50 [6]: 20 µM (inconclusive)

O=C(Nc1cccc(Br)c1)/C(=C\c1cccnc1)NC(=O)c1ccco1
AC50 [7]: 39.8 µM (inconclusive) | AC50 [6]: 31.6 µM (inconclusive)

CC(C)NC(=S)NC(=O)c1ccc(-c2ccccc2)cc1
EC50 [8]: > 53 µM (inactive)

N#CCCn1c(=O)c(-c2ccc(Cl)cc2)nc2cnc(N3CCNCC3)nc21
AC50 [2]: 25.1 µM (inconclusive)

Cc1c(OCC(=O)N2CCN(c3ccccc3)CC2)ccc2c3c(c(=O)oc12)CCCC3
EC50 [3]: > 112 µM (not active) | EC50 [4]: > 112 µM (not active)

O=C(NCc1ccc(Cl)cc1)c1n[nH]c([N+](=O)[O-])c1Cl
EC50 [9]: 0.123 µM (active) | EC50 [10]: > 160 µM (inactive)

CCOC(=O)COc1ccc2c(=O)c(-c3ccccc3)coc2c1
IC50 [1]: < 0.1 µM (active)

COc1cccc(C2C3=C(CC(C)(C)CC3=O)OC(N)=C2[N+](=O)[O-])c1 (stereo not given)
AC50 [2]: 15.8 µM (inconclusive) | AC50 [7]: 12.6 µM (inconclusive)

O=c1c(-c2ccccc2)nc2cnc(N3CCOCC3)nc2n1Cc1cccs1
AC50 [7]: 20 µM (inconclusive) | AC50 [6]: 2.51 µM (inconclusive)

Cc1cc(-n2ccc(=O)[nH]c2=O)nc(-c2ccccc2)n1
EC50 [3]: > 112 µM (not active) | EC50 [4]: 15.4 µM (active)

COc1ccccc1CNCc1cccs1
AC50 [2]: 17.8 µM (inconclusive)

Cn1c(=O)c2[nH]c(SCCN3CCOCC3)nc2n(C)c1=S
AC50 [2]: 3.16 µM (inconclusive) | AC50 [7]: 6.31 µM (inconclusive) | AC50 [6]: 0.631 µM (inconclusive)

CC(C)Oc1cccnc1N(C)C1CCN(Cc2ccccc2)CC1
AC50 [2]: 15.8 µM (inconclusive)

O=C(CSc1nnc(SCc2ccc(F)cc2)s1)Nc1ccc(C(=O)O)cc1
EC50 [3]: > 112 µM (not active) | EC50 [4]: 39.4 µM (active)

COCc1c(C(N)=O)nnn1-c1nonc1N
AC50 [6]: 25.1 µM (inconclusive)

COc1cc(OC)cc(C(=O)N/N=C/c2ccc(OC)c(COc3ccc(F)cc3)c2)c1
EC50 [8]: > 53 µM (inactive)
